Reference: patent US9174952B2, “Substituted 3-thiazoloamino-propionic acid derivatives and their use as pharmaceuticals” (SANOFI, priority 2011, dated 2015)

Each compound was assayed against T1, Recombinant human cathepsin A (Homo sapiens, UniProt P10619) (assay: Cathepsin A inhibitory activity). Conditions: activated recombinant human cathepsin A 833 ng/ml, Bodipy FL-labeled bradykinin substrate 2 μM, pH 5.5, room temperature.
T1 construct: Recombinant human cathepsin A (residues 29-480, with a C-terminal 10-His tag); 10-His (C); purchased R&D Systems 1049-SE
T1 sequence (P10619 29-326 limits assumed): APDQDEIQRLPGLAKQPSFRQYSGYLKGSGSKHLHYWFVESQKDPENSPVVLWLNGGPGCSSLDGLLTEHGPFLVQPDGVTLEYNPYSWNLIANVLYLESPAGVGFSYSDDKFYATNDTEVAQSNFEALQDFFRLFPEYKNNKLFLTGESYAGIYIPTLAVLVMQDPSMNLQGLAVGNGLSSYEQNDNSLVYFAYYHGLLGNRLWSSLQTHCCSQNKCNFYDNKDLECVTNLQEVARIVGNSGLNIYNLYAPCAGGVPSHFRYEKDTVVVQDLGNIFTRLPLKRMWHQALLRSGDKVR
T1 sequence (P10619 327-480 limits assumed): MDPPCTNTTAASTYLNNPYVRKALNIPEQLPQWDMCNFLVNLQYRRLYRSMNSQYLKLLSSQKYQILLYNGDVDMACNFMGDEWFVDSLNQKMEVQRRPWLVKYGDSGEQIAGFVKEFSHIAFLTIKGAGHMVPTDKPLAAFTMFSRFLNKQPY
Type: biochemical
Description: a) Cathepsin A Inhibitory Activity
Recombinant human cathepsin A (residues 29-480, with a C-terminal 10-His tag; R&D Systems, #1049-SE) was proteolytically activated with recombinant human cathepsin L (R&D Systems, #952-CY). Briefly, cathepsin A was incubated at 10 μg/ml with cathepsin L at 1 μg/ml in activation buffer (25 mM 2-(morpholin-4-yl)-ethanesulfonic acid (MES), pH 6.0, containing 5 mM dithiothreitol (DTT)) for 15 min at 37° C. Cathepsin L activity was then stopped by the addition of the cysteine protease inhibitor E-64 (N-(trans-epoxysuccinyl)-L-leucine-4-guanidinobutylamide; Sigma-Aldrich, # E3132; dissolved in activation buffer/DMSO) to a final concentration of 10 μM.
The activated cathepsin A was diluted in assay buffer (25 mM MES, pH 5.5, containing 5 mM DTT) and mixed with the test compound (dissolved in assay buffer containing (v/v) 3% DMSO) or, in the control experiments, with the vehicle in a multiple assay plate. After incubation for 15 min at room temperature, as substrate then bradykinin carrying an N-terminal ®Bodipy FL (4,4-difluoro-5,7-dimethyl-4-bora-3a,4a-diaza-s-indacene-3-propionyl) label (JPT Peptide Technologies GmbH; dissolved in assay buffer) was added to the mixture. The final concentration of cathepsin A was 833 ng/ml and the final concentration of labeled bradykinin 2 μM. After incubation for 15 min at room temperature the reaction was stopped by the addition of stop buffer (130 mM 2-(4-(2-hydroxy-ethyl)-piperazin-1-yl)-ethanesulfonic acid, pH 7.4, containing (v/v) 0.013% ®Triton X-100, 0.13% Coating Reagent 3 (Caliper Life Sciences), 6.5% DMSO and 20 μM ebelactone B (Sigma, # E0886)).
Uncleaved substrate and product were then separated by a microfluidic capillary electrophoresis on a LabChip® 3000 Drug Discovery System (12-Sipper-Chip; Caliper Life Sciences) and quantified by determination of the respective peak areas. Substrate turnover was calculated by dividing product peak area by the sum of substrate and product peak areas, and the enzyme activity and the inhibitory effect of the test compound thus quantified. From the percentage of inhibition of cathepsin A activity observed with the test compound at several concentrations, the inhibitory concentration IC50, i.e. the concentration which effects 50% inhibition of enzyme activity was, calculated.

SMILES	IC50
O=C(O)C[C@H](NC(=O)c1csc(-c2ccc(Cl)cc2)n1)c1ccccc1Cl [Example 32, (S)-3-(2-Chloro-phenyl)-3-{[2-(4-chloro-phenyl)-thiazole-4-carbonyl]-amino}-propionic acid]	1400 nM
O=C(O)C[C@H](NC(=O)c1csc(-c2ccc(C(F)(F)F)cc2)n1)c1ccccc1Cl [Example 33, (S)-3-(2-Chloro-phenyl)-3-{[2-(4-trifluoromethyl-phenyl)-thiazole-4-carbonyl]-amino}-propionic acid]	3110 nM
O=C(O)C[C@H](NC(=O)c1csc(-c2ccccc2)n1)c1ccccc1F [Example 35, (S)-3-(2-Fluoro-phenyl)-3-[(2-phenyl-thiazole-4-carbonyl)-amino]-propionic acid]	1480 nM
O=C(O)C[C@H](NC(=O)c1csc(-c2ccc(C(F)(F)F)cc2)n1)c1ccccc1F [Example 37, (S)-3-(2-Fluoro-phenyl)-3-{[2-(4-trifluoromethyl-phenyl)-thiazole-4-carbonyl]-amino}-propionic acid]	14700 nM
O=C(O)C[C@H](NC(=O)c1csc(-c2ccc(C(F)(F)F)cc2)n1)c1ccccc1C(F)(F)F [Example 38, (S)-3-(2-Trifluoromethyl-phenyl)-3-{[2-(4-trifluoromethyl-phenyl)-thiazole-4-carbonyl]-amino}-propionic acid]	23300 nM
Cc1ccccc1-c1nc(C(=O)N[C@@H](CC(=O)O)c2cccc(Cl)c2)cs1 [Example 39, (S)-3-(3-Chloro-phenyl)-3-[(2-o-tolyl-thiazole-4-carbonyl)-amino]-propionic acid]	807 nM
O=C(O)C[C@H](NC(=O)c1csc(-c2ccccc2)n1)c1cccc(Cl)c1 [Example 40, (S)-3-(3-Chloro-phenyl)-3-[(2-phenyl-thiazole-4-carbonyl)-amino]-propionic acid]	821 nM
O=C(O)C[C@H](NC(=O)c1csc(-c2cccc(Cl)c2)n1)c1cccc(Cl)c1 [Example 44, (S)-3-(3-Chloro-phenyl)-3-{[2-(3-chloro-phenyl)-thiazole-4-carbonyl]-amino}-propionic acid]	2980 nM
O=C(O)C[C@H](NC(=O)c1csc(-c2ccc(Cl)cc2)n1)c1cccc(Cl)c1 [Example 45, (S)-3-(3-Chloro-phenyl)-3-{[2-(4-chloro-phenyl)-thiazole-4-carbonyl]-amino}-propionic acid]	3540 nM
O=C(O)C[C@H](NC(=O)c1csc(-c2ccc(C(F)(F)F)cc2)n1)c1cccc(Cl)c1 [Example 46, (S)-3-(3-Chloro-phenyl)-3-{[2-(4-trifluoromethyl-phenyl)-thiazole-4-carbonyl]-amino}-propionic acid]	10500 nM
O=C(O)C[C@H](NC(=O)c1csc(-c2ccccc2)n1)c1cccc(F)c1 [Example 48, (S)-3-(3-Fluoro-phenyl)-3-[(2-phenyl-thiazole-4-carbonyl)-amino]-propionic acid]	955 nM
O=C(O)C[C@H](NC(=O)c1csc(-c2ccc(C(F)(F)F)cc2)n1)c1cccc(F)c1 [Example 50, (S)-3-(3-Fluoro-phenyl)-3-{[2-(4-trifluoromethyl-phenyl)-thiazole-4-carbonyl]-amino}-propionic acid]	> 10000 nM
COc1cccc([C@H](CC(=O)O)NC(=O)c2csc(-c3ccccc3)n2)c1 [Example 52, (S)-3-(3-Methoxy-phenyl)-3-[(2-phenyl-thiazole-4-carbonyl)-amino]-propionic acid]	2860 nM
O=C(O)C[C@H](NC(=O)c1nc(-c2ccccc2)cs1)c1ccccc1F [Example 53, (S)-3-(2-Fluoro-phenyl)-3-[(4-phenyl-thiazole-2-carbonyl)-amino]-propionic acid]	1750 nM
O=C(O)C[C@H](NC(=O)c1csc(-c2ccccc2F)n1)c1ccc(F)cc1 [Example 56, (S)-3-(4-Fluoro-phenyl)-3-{[2-(2-fluoro-phenyl)-thiazole-4-carbonyl]-amino}-propionic acid]	1050 nM
O=C(N[C@H](C(=O)O)C1CCCCC1)c1csc(-c2cccc(Cl)c2)n1 [Example 57, (S)-{[2-(3-Chloro-phenyl)-thiazole-4-carbonyl]-amino}-cyclohexyl-acetic acid]	> 10000 nM
O=C(N[C@@H](Cc1ccc(Cl)cc1)C(=O)O)c1csc(-c2ccccc2)n1 [Example 58, (S)-3-(4-Chloro-phenyl)-2-[(2-phenyl-thiazole-4-carbonyl)-amino]-propionic acid]	22000 nM
COc1ccc([C@H](CC(=O)O)NC(=O)c2csc(-c3ccccc3)n2)cc1 [Example 59, (S)-3-(4-Methoxy-phenyl)-3-[(2-phenyl-thiazole-4-carbonyl)-amino]-propionic acid]	976 nM
COc1ccc([C@H](CC(=O)O)NC(=O)c2csc(-c3ccc(C(F)(F)F)cc3)n2)cc1 [Example 60, (S)-3-(4-Methoxy-phenyl)-3-{[2-(4-trifluoromethyl-phenyl)-thiazole-4-carbonyl]-amino}-propionic acid]	14800 nM

Now those with a lower IC50, led by results:

IC50	SMILES
703 nM	O=C(O)C[C@H](NC(=O)c1csc(-c2cccc(Cl)c2)n1)c1ccccc1Cl [Example 31, (S)-3-(2-Chloro-phenyl)-3-{[2-(3-chloro-phenyl)-thiazole-4-carbonyl]-amino}-propionic acid]
313 nM	Cc1ccccc1-c1nc(C(=O)N[C@@H](CC(=O)O)c2ccccc2F)cs1 [Example 34, (S)-3-(2-Fluoro-phenyl)-3-[(2-o-tolyl-thiazole-4-carbonyl)-amino]-propionic acid]
659 nM	O=C(O)C[C@H](NC(=O)c1csc(-c2ccccc2F)n1)c1ccccc1F [Example 36, (S)-3-(2-Fluoro-phenyl)-3-{[2-(2-fluoro-phenyl)-thiazole-4-carbonyl]-amino}-propionic acid]
583 nM	O=C(O)C[C@H](NC(=O)c1csc(-c2cccc(Cl)c2Cl)n1)c1cccc(Cl)c1 [Example 41, (S)-3-(3-Chloro-phenyl)-3-{[2-(2,3-dichloro-phenyl)-thiazole-4-carbonyl]-amino}-propionic acid]
238 nM	O=C(O)C[C@H](NC(=O)c1csc(-c2ccccc2Cl)n1)c1cccc(Cl)c1 [Example 42, (S)-3-(3-Chloro-phenyl)-3-{[2-(2-chloro-phenyl)-thiazole-4-carbonyl]-amino}-propionic acid]
694 nM	O=C(O)C[C@H](NC(=O)c1csc(-c2ccccc2F)n1)c1cccc(Cl)c1 [Example 43, (S)-3-(3-Chloro-phenyl)-3-{[2-(2-fluoro-phenyl)-thiazole-4-carbonyl]-amino}-propionic acid]
280 nM	Cc1ccccc1-c1nc(C(=O)N[C@@H](CC(=O)O)c2cccc(F)c2)cs1 [Example 47, (S)-3-(3-Fluoro-phenyl)-3-[(2-o-tolyl-thiazole-4-carbonyl)-amino]-propionic acid]
724 nM	O=C(O)C[C@H](NC(=O)c1csc(-c2ccccc2F)n1)c1cccc(F)c1 [Example 49, (S)-3-(3-Fluoro-phenyl)-3-{[2-(2-fluoro-phenyl)-thiazole-4-carbonyl]-amino}-propionic acid]
457 nM	O=C(O)C[C@H](NC(=O)c1nc(-c2ccccc2)cs1)c1ccc(F)cc1 [Example 51, (S)-3-(4-Fluoro-phenyl)-3-[(4-phenyl-thiazole-2-carbonyl)-amino]-propionic acid]
303 nM	Cc1ccccc1-c1nc(C(=O)N[C@@H](CC(=O)O)c2ccc(F)cc2)cs1 [Example 54, (S)-3-(4-Fluoro-phenyl)-3-[(2-o-tolyl-thiazole-4-carbonyl)-amino]-propionic acid]
542 nM	O=C(O)C[C@H](NC(=O)c1nc(-c2ccccc2)cs1)c1cccc(F)c1 [Example 55, (S)-3-(3-Fluoro-phenyl)-3-[(4-phenyl-thiazole-2-carbonyl)-amino]-propionic acid]
